How the values were obtained:
[1] = tested on: STHdhQ7/Q7 and STHdhQ111/Q111 striatal cells; assay: 3-NP-induced cytotoxicity in striatal Q7 and Q111 cells (YOYO-1); type: cell-based, mouse; details: 6 h pre-treatment, 3-NP 10 mM 24 h; compound VII increasing concentrations, DFX 50 μM
Procedure: FIG. 8. Compound VII abrogates 3-NP toxicity in Q7 and […] striatal cells. Q7 and Q111 Striatal cells were pretreated with increasing concentrations of compound VII for 6 h and then exposed to 3-NP (10 mM) for an additional 24 h, after which YOYO-1 staining was used to investigate cell death. Cell death was determined using the IncuCyte HD software and the treatment with 3-NP alone in Q111 cells was considered as 100% of cell death.
To investigate whether HIF activation in striatal Q7 and Q111 cells is sufficient to protect striatal neurons (provide neuroprotection), the effect of compound VII on 3-NP induced death was examined. […]
STHdh^Q7/Q7 and STHdh^Q111/Q111 cells (10^4 cells/well in 96-well plates) were incubated with YOYO-1 (Life Technologies) and then treated with 3-NP (10 mM) and or DFX (50 μM) as a positive control for PHDs inhibition. […] The uptake of YOYO-1 by damaged cells correlates with the increase in YOYO-1 fluorescence. Treated cells are placed in an Incucyte FLR imaging system, and the YOYO-1 fluorescence is measured after 24 h of 3-NP treatment. Following the incubation period object counting analysis was performed using the Incucyte FLR software to calculate the total number of YOYO-1 fluorescence positive cells and total DNA containing objects (end point). […]

Nrf2 = Nrf2 activation/inhibition in HaCaT-ARE-Luc cells; type: cell-based; details: 6 h
Procedure: The HeLa-STAT3-luc cells stably transfected with the plasmid 4×M67 pTATA TK-Luc. Cells (20×10^3 cells/ml) were seeded in 96-well plates, treated with increasing concentrations of the compounds II to XIV, and of comparative compound CDDO-Me, for 15 min and then stimulated with IFN-γ 25 IU/ml. After 6 h the luciferase activity in the cell lysates was measured as indicated above. […] The HaCaT-ARE-Luc cell line contains the Nqo1 Antioxidant Response Element (ARE)-Luc reporter plasmid. ARE is activated by all members of the CNC family of factors (Nrf1, Nrf2, Nrf3 and p45 NF-E2). The cells were cultivated in 96-well plates at the concentration of 25×10^3 cells/well in a CO2 incubator at 37° C. For induction of Nrf2 activation the cells were treated with increasing concentrations of the compounds II to XV, and of comparative compound CDDO-Me, for 6 h. As a positive control the cells were treated with 0.02 mM of the antioxidant Tert-butyl-hydroquinone (TBHQ). Luciferase activity in the cell lysates was measured as indicated above and the EC50 calculated (Table III). The CHO-TGR5-CRE-Luc cells stably transfected with the pTGR5 and CRE-Luc. The CRE-responsive luciferase construct encodes the firefly luciferase reporter gene under the control of a minimal (m)CMV promoter and tandem repeats of the CRE transcriptional response element (TRE) and is useful to monitor cAMP signaling pathways activated by TGR5 agonists. Cells (1×10^4/well) were seeded in 96-well plates, treated with increasing concentrations of the compounds II to XV and CDDO-Me, for 6 h. As a positive control the cells were treated with 10 μM of LCA (lithocholic acid). Luciferase activity in the cell lysates was measured as indicated above and the EC50 calculated (Table III).

HIF-1α = HIF-1α transactivation assay in NIH-3T3-EPO-Luc fibroblast cells; type: cell-based; details: 6 h stimulation
Procedure: To investigate the biological activities of the different compounds, HIF-1α transactivation assays were performed either in NIH-3T3-EPO-Luc cells (Table II) or in HaCaT-EPO-luc cells (FIG. 2). The NIH3T3-EPO-luc and HaCaT-EPO-luc cells have been stably transfected with the plasmid Epo-Luc plasmid. The EPO-Hypoxia Response Element (HRE)-luciferase reporter plasmid contains three copies of the HRE consensus sequence from the promoter of the erythropoietin gene fused to the luciferase gene. NIH3T3-EPO-luc cells were maintained at 37° C. in a humidified atmosphere containing 5% CO2 in DMEM supplemented with 10% fetal calf serum (FBS), and 1% (v/v) penicillin/streptomycin. DFX was purchased from Sigma-Aldrich (USA). Cells (1×10^4/well in 96 well plates) were seeded the day before the assay. […] After six hours of stimulation the cells were lysed in 25 mM Tris-phosphate pH 7.8, 8 mM MgCl2, 1 mM DTT, 1% Triton X-100, and 7% glycerol during 15 min at RT in a horizontal shaker. Luciferase activity is measured using a microplate luminometer (Berthold) following the instructions of the luciferase assay kit (Promega, Madison, Wis., USA).

## C=C(C)[C@@H]1CC[C@]2(C(=O)NO)CC[C@]3(C)[C@H](CC[C@@H]4[C@@]5(C)CC[C@H](O)C(C)(C)[C@@H]5CC[C@]43C)[C@@H]12 [Compound VII, (3β) 3-Hydroxy-N-hydroxy-lup-20(29)-en-28-amide]
[1]
  neuroprotection to 3-NP-induced cytotoxicity (cell death): clearly provided a significant level of neuroprotection
Nrf2
  EC50: > 50 µM
HIF-1α; relative to 150 μM DFX
  Efficacy HIF-1α (IRA coefficient): 0.36
HIF-1α; Fibroblast, read-out: Potency EC50 HIF-1α
  EC50: 4.81 µM
